# Counter-ions that a name gives are not always drawn.
# System: dissociated bovine parathyroid cells
# Experiment: Stimulation of PTH secretion
# Type: cell-based
# Conditions: Bos taurus, 0.5 h, 0.5 mM Ca2+, 30 minutes
# Procedure: This example illustrates the ability of different calcilytic compounds to exert a biological effect on PTH secretion. PTH secretion was determined using dissociated bovine parathyroid cells as described below for Compounds 32, 33, and 38. […] Stimulation of PTH secretion was assayed as follows: Parathyroid cell buffer (PCB) contains (mM): NaCl, 126; KCl, 4; MgSO4, 1; K2HPO4/KH2PO4, 0.7; Na-Hepes, pH 7.45, and variable amounts of CaCl2 as specified (reagent grade). PCB was typically supplemented with bovine serum albumin (BSA fraction V; ICN Biomedicals, Inc., Costa Mesa, Calif.; catalog #81-003) and 1 mg/mL of D-glucose (reagent grade) as indicated. Percoll purification buffer was prepared immediately before use by mixing 8 mL of Percoll (Pharmacia LKB, Alameda, Calif.; catalog #17-0891-01) and 7 mL of a twice-concentrated PCB solution without phosphate and containing 2 mM CaCl2. Parathyroid glands were obtained from calves within minutes of slaughter at an abattoir and shipped via overnight express on ice in PCB containing 1.25 mM CaCl2. The glands were trimmed and minced in ice-cold PCB containing 1.25 mM CaCl2, 1 mg/mL of D-glucose, and 2% BSA. […]
row,SMILES,EC50 [µM]
1,"COc1ccc(CC(C)(C)NC[C@@H](O)COc2ccccc2)cc1 (single isomer, unassigned) [Compound 32, (R) or (S)—N-(2-Hydroxy-3-phenoxypropyl)-1,1-dimethyl-2-(4-methoxyphenyl)ethylamine Hydrochloride]",< 10
2,"COc1ccc(CC(C)(C)NCC(O)COc2cccc(OC)c2)cc1 (centres unmarked) [Compound 38, N-[2-Hydroxy-3-(3-methoxyphenoxy)propyl]-1,1-dimethyl-2-(4-methoxyphenyl)ethylamine Hydrochloride]",< 10
